Laboratory results reported in the NIST ThermoML archive (doi:10.1016/j.fluid.2017.03.021).

Assays:
[1] = 101.33 kPa, Liquid; for speed of sound: Sing-around technique in a fixed-path interferometer; for mass density: Vibrating tube method
[2] = molar heat capacity at constant pressure; conditions: 101.33 kPa, Liquid, DSC

CCCCn1cc[n+](CCC(C)C)c1.O=S(=O)([N-]S(=O)(=O)C(F)(F)F)C(F)(F)F
Conditions | mass density, [1] [kg/m3] | molar heat capacity at constant pressure, [2] [J/K/mol] | speed of sound, [1] [m/s]
287.15 K | 1328.1 | – | 1243.8
289.15 K | 1326.3 | – | 1238.9
291.15 K | 1324.4 | – | 1234.1
293.15 K | 1322.6 | 681.82 | 1229.3
294.15 K | – | 682.92 | –
295.15 K | 1320.8 | 683.63 | 1224.5
296.15 K | – | 684.34 | –
297.15 K | 1319.1 | 685.11 | 1219.8
298.15 K | – | 685.77 | –
299.15 K | 1317.3 | 686.48 | 1215.1
300.15 K | – | 687.15 | –
301.15 K | 1315.5 | 687.82 | 1210.4
302.15 K | – | 688.48 | –
303.15 K | 1313.7 | 689.15 | 1205.8
304.15 K | – | 689.91 | –
305.15 K | 1311.9 | 690.67 | 1201.2
306.15 K | – | 691.33 | –
307.15 K | 1310.2 | 692.19 | 1196.6
308.15 K | – | 692.95 | –
309.15 K | 1308.4 | 693.62 | 1192
310.15 K | – | 694.42 | –
311.15 K | 1306.6 | 695.14 | 1187.5
312.15 K | – | 695.9 | –
313.15 K | 1304.9 | 696.66 | 1183
314.15 K | – | 697.47 | –
315.15 K | 1303.1 | 698.23 | 1178.4
316.15 K | – | 698.94 | –
317.15 K | 1301.3 | 699.65 | 1173.9
318.15 K | – | 700.56 | –
319.15 K | 1299.6 | 701.27 | 1169.5
320.15 K | – | 702.08 | –
321.15 K | 1297.8 | 702.84 | 1165
322.15 K | – | 703.7 | –
323.15 K | 1296.1 | 704.55 | 1160.6
324.15 K | – | 705.36 | –
325.15 K | 1294.3 | 706.26 | 1156.2
326.15 K | – | 707.07 | –
327.15 K | 1292.6 | 707.93 | 1151.8
328.15 K | – | 708.78 | –
329.15 K | 1290.8 | 709.59 | 1147.4
330.15 K | – | 710.4 | –
331.15 K | 1289.1 | 711.16 | 1143
332.15 K | – | 711.97 | –
333.15 K | 1287.4 | 712.68 | 1138.7
334.15 K | – | 713.49 | –
335.15 K | 1285.6 | 714.25 | 1134.3
336.15 K | – | 714.92 | –
337.15 K | 1283.9 | 715.82 | 1130
338.15 K | – | 716.58 | –
339.15 K | 1282.2 | 717.34 | 1125.7
340.15 K | – | 718.15 | –
341.15 K | 1280.4 | 718.86 | 1121.5
342.15 K | – | 719.53 | –
343.15 K | 1278.7 | 720.2 | 1117.3
344.15 K | – | 720.81 | –
345.15 K | – | 721.43 | –
346.15 K | – | 722.24 | –
347.15 K | – | 723.05 | –
348.15 K | – | 724.28 | –
